Source: patent publication US6624190B2, “2-acylamino-2-deoxy-glucono-1,5-lactones, a method for the production thereof, compositions containing them, and uses thereof” (Universite Pierre et Marie Curie (Paris VI), priority 1998, dated 2003)

Experiments:
[1] = comparison values; cited from earlier work
[2] = Determination of critical micellar concentration by surface tension (Wilhelmy plate method); type: physicochemical
Experimental: The surface tension γ of a liquid in contact with air was measured at 25° C. by the Wilhelmy plate method (Prolabo TENSIMAT n3 tensometer). This consisted of plunging a vertical platinum strip (19.54 mm long) into a liquid then gradually withdrawing it, monitoring the tension exerted on the strip by the liquid film. The maximum value recorded before complete detachment of the strip represented the surface tension, expressed in mN/m. After calibrating the apparatus (calibration at two points: the zero value with the strip in air and a value of 50.2 mN/m with the strip tested with a weight of 200 mg), the surface tensions of solutions containing increasing quantities of the surfactant were recorded (measurements repeated three times). The critical micellar concentration was obtained from conventional graphs of γ=f(logC) where C represents the concentration in mol/l.
The change in surface tension γ (in mN/m) of an aqueous solution (volume=10 ml) was monitored as a function of the quantities of dissolved product (C, in Mol/l) (A=C(O)C7H15 and R2=CH3). The critical micellar concentration corresponds to the concentration above which the surface tension becomes a constant.

[3] = test system: bovine kidney β—N-acetyl glucosaminidase (EC 3.2.1.52); test: N-acetyl glucosaminidase (NaGase) enzymatic inhibition, pNphNAG substrate; type: biochemical
Experimental: The enzyme used as a reference was bovine kidney β—N-acetyl glucosaminidase (EC 3.2.1.52) (Sigma A-2415) and its substrate was p-nitrophenyl 2-acetamido-2-deoxy glucopyranoside (Acros 22941-1000) (pNphNAG). The commercially available enzyme, in the form of a suspension in a 3.2 M solution of (NH4)2SO4, was centrifuged at 13000 rpm for 5 minutes and the residue was taken up in 1 ml of water. The solution obtained was the mother enzymatic solution.
Protocol: 100 μl of the enzymatic solution diluted to 1/10 was mixed with 100 μl of pH 4.2 citrate buffer and 300 μl of inhibitor solution (or water for the reference) and incubated at 37° C. for 5 minutes in a spectrophotometer cell. After adding 500 μl of substrate (5 mM or 2.5 mM), incubation was continued for 8 minutes at 37° C. and the optical density at 400 nm was monitored. The quantity of p-nitrophenol liberated by the enzymatic reaction was determined by correlating the optical density to a calibration curve (OD at 400 nm=f([p-nitrophenol])). The N-acetyl glucosaminidase activity unit was defined as the quantity of enzyme required to liberate one μmole of p-nitrophenol per minute under the conditions cited above.
I50 is defined as the concentration of compound capable of inhibiting 50% of the enzymatic activity under the assay conditions.
We colorimetrically monitored the quantities of p-nitrophenol liberated (in 10^−3 μmol/mn) by the action of N-acetyl glucosaminidase (NaGase) on pNphNAG (2.5 mM) in the presence of increasing quantities of (i) (concentration C in mM).
In order to determine the inhibition constant K1, we used Dixon's graphical method, which consisted of plotting the inverse of the initial velocity (1 Iv0) of the enzymatic reaction against the inhibitor concentration (C, in μM) for two different substrate concentrations. The abscissa of the intersection point of the two straight lines corresponds to —K1.

[4] = target: T1, chicken lysozyme (Gallus gallus, UniProt P00698); test: Lysozyme inhibition, Micrococcus lysodeikticus walls substrate; type: biochemical
T1 construct: purchased Sigma L-6876
T1 sequence (P00698 19-147): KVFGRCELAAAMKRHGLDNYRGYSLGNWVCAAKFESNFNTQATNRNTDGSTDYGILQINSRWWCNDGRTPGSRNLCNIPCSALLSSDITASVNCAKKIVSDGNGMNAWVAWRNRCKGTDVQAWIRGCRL
Experimental: The enzyme studied was 0.5 g/l chicken lysozyme (Sigma, L-6876) in a 100 mM, pH 6.5 phosphate buffer and the substrate was constituted by 17 mg/100 ml of Micrococcus lysodeikticus walls in suspension in the same buffer.
Protocol: 100 μl of enzymatic solution was diluted with 400 μl of inhibitor solution. This was left at ambient temperature for 5 or 10 minutes. 40 μl of mixture was added to 3 ml of the substrate suspension in a spectrophotometer cell. The optical density was recorded at 450 nm every 10 seconds for 3 minutes.

CCCCCCCCO[C@@H]1O[C@H](CO)[C@@H](O)[C@H](O)[C@H]1O [octyl glucoside, n-octyl glucoside]
critical micellar concentration (CMC) of commercially available glycosylated surfactants [1]: 18 mM

CCCCCCCC(=O)OC[C@H]1OC(=O)[C@H](NC(C)=O)[C@@H](O)[C@@H]1O [(i), 2-acetamido-2-deoxy-6—O-octanoyl-glucono-1,5-lactone]
critical micellar concentration (CMC) ([2]; aqueous solution, 25° C.): 25 mM
surface tension of water reduced to ([2]; reduction from 71 mN/m for concentrations of 0 to 25 mM (8.6 g/l)): 30 mN/m
nature of inhibition ([3]; Dixon diagram): competitive
Ki ([3]; Dixon's graphical method, substrate 2.5 mM and 5 mM, read-out: inhibition constant K1): ~3 µM
IC50 ([3]; pNphNAG 2.5 mM, pH 4.2 citrate buffer, 37° C., read-out: I50): ~7 µM
effect on lysozyme activity ([4]; 0.1 mg/ml lysozyme, compound 1.8 mM): No difference was detected
affinity for lysozyme ([4]; summary): no affinity

CCCCCCCNC(=O)OC[C@H]1O[C@H](OC)[C@H](O)[C@@H](O)[C@@H]1O [HECAMEG]
critical micellar concentration (CMC) of commercially available glycosylated surfactants [1]: 22 mM
